Measurements: PubChem BioAssay AID248 (DTP/NCI, 2004)
Inconclusive results and toxic doses are left out. Rule as the data show it: active = T/C of 150% or more; inactive = T/C below 125%.

System: L1210 leukemia ip in BDF1 mice, survival T/C
Test: NCI In Vivo Anticancer Drug Screen. Data for tumor model L1210 Leukemia (intraperitoneal) in B6D2F1 (BDF1) mice
Conditions: endpoint: mean survival time, higher = longer survival
Outline: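 Read-out is survival time, reported as the treated-group measurement over the vehicle-control measurement.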

[1] = dose: 100.0 mg/kg/injection, schedule: Q01DX009 (ip), vehicle: saline
[2] = dose: 200.0 mg/kg/injection, schedule: Q01DX009 (ip), vehicle: saline
[3] = dose: 100.0 mg/kg/injection, schedule: Q01DX001 (ip), vehicle: saline
[4] = dose: 100.0 mg/kg/injection, schedule: Q04DX003 (ip), vehicle: saline
[5] = dose: 200.0 mg/kg/injection, schedule: Q01DX001 (ip), vehicle: saline
[6] = dose: 200.0 mg/kg/injection, schedule: Q04DX003 (ip), vehicle: saline
[7] = dose: 400.0 mg/kg/injection, schedule: Q04DX003 (ip), vehicle: saline
[8] = dose: 100.0 mg/kg/injection, schedule: Q04DX003 (ip), vehicle: Klucel (hydroxypropylcellulose) (HPC)
[9] = dose: 200.0 mg/kg/injection, schedule: Q04DX003 (ip), vehicle: Klucel (hydroxypropylcellulose) (HPC)

Measured: T/C

COc1ccc2c(c1)NCc1c(Br)cc(Br)cc1C2=O
inactive: [1] 94 % of control | [2] 93 % of control | dose: 400.0 mg/kg/injection, schedule: Q01DX009 (ip), vehicle: saline 91 % of control

COC1OCC(OCc2ccccc2)C(OCc2ccccc2)C1OCc1ccccc1 (stereo unspecified)
inactive: dose: 100.0 mg/kg/injection, schedule: Q01DX001 (ip), vehicle: carboxymethylcellulose (CMC) 118 % of control | dose: 200.0 mg/kg/injection, schedule: Q01DX001 (ip), vehicle: carboxymethylcellulose (CMC) 98 % of control | dose: 400.0 mg/kg/injection, schedule: Q01DX001 (ip), vehicle: carboxymethylcellulose (CMC) 96 % of control

O=Nc1c(-c2c[nH]c3ccccc23)[nH]c2ccccc12
inactive: dose: 50.0 mg/kg/injection, schedule: Q01DX001 (ip), vehicle: saline 106 % of control | [3] 102 % of control

O=S(=O)(O)F
inactive: dose: 50.0 mg/kg/injection, schedule: Q04DX003 (ip), vehicle: saline 96 % of control | [3] 94 % of control | [4] 89 % of control | [5] 94 % of control | [6] 96 % of control

CO/N=C(\C)CSS(=O)(=O)OC
inactive: dose: 100.0 mg/kg/injection, schedule: Q04DX002 (ip), vehicle: saline 93 % of control | dose: 200.0 mg/kg/injection, schedule: Q04DX002 (ip), vehicle: saline 96 % of control | dose: 400.0 mg/kg/injection, schedule: Q04DX002 (ip), vehicle: saline 86 % of control

CCCc1cc(CN2CCCCC2)c(O)c(CN2CCCCC2)c1O
inactive: [3] 96 % of control | [5] 95 % of control | dose: 400.0 mg/kg/injection, schedule: Q01DX001 (ip), vehicle: saline 88 % of control

CCCNC(=O)OC1CCS(=O)(=O)C1 (stereo unspecified)
inactive: dose: 100.0 mg/kg/injection, schedule: Q04DX002 (ip), vehicle: Klucel (hydroxypropylcellulose) (HPC) 95 % of control | dose: 200.0 mg/kg/injection, schedule: Q04DX002 (ip), vehicle: Klucel (hydroxypropylcellulose) (HPC) 100 % of control | dose: 400.0 mg/kg/injection, schedule: Q04DX002 (ip), vehicle: Klucel (hydroxypropylcellulose) (HPC) 95 % of control

CCCC(=O)C(CC)C(O)(C(F)(F)F)C(F)(F)F (stereo unspecified)
inactive: [1] 92 % of control | [2] 94 % of control

O=C(O)/C=C(/C(=O)O)c1cccn1Cc1ccccc1
inactive: dose: 25.0 mg/kg/injection, schedule: Q01DX009 (ip), vehicle: saline with Tween-80 110 % of control | dose: 50.0 mg/kg/injection, schedule: Q01DX009 (ip), vehicle: saline with Tween-80 100 % of control | dose: 100.0 mg/kg/injection, schedule: Q01DX009 (ip), vehicle: saline with Tween-80 102 % of control

CC(=O)OC1CC2C(C(=O)O)C2C1OC(C)=O (stereo unspecified)
inactive: dose: 100.0 mg/kg/injection, schedule: Q01DX001 (ip), vehicle: saline with Tween-80 104 % of control | dose: 200.0 mg/kg/injection, schedule: Q01DX001 (ip), vehicle: saline with Tween-80 92 % of control | dose: 400.0 mg/kg/injection, schedule: Q01DX001 (ip), vehicle: saline with Tween-80 95 % of control

O=C(O)c1cccc2c1C(Br)C(Br)c1ccccc1-2 (stereo unspecified)
inactive: [4] 94 % of control | [6] 94 % of control | [7] 92 % of control

CCCC=C(CCCC)CCCC
inactive: dose: 100.0 mg/kg/injection, schedule: Q04DX002 (ip), vehicle: saline with Tween-80 87 % of control | dose: 200.0 mg/kg/injection, schedule: Q04DX002 (ip), vehicle: saline with Tween-80 94 % of control

O=C(C=C(C(F)(F)F)C(F)(F)F)c1cccc2ccccc12
inactive: dose: 12.5 mg/kg/injection, schedule: Q01DX009 (ip), vehicle: gum acacia 107 % of control | dose: 25.0 mg/kg/injection, schedule: Q01DX009 (ip), vehicle: gum acacia 100 % of control | dose: 50.0 mg/kg/injection, schedule: Q01DX009 (ip), vehicle: gum acacia 100 % of control | dose: 100.0 mg/kg/injection, schedule: Q04DX003 (ip), vehicle: gum acacia 100 % of control | dose: 200.0 mg/kg/injection, schedule: Q04DX003 (ip), vehicle: gum acacia 97 % of control | dose: 400.0 mg/kg/injection, schedule: Q04DX003 (ip), vehicle: gum acacia 91 % of control

[N-]=[N+]=C1Cc2ccccc2C1=O
inactive: dose: 100.0 mg/kg/injection, schedule: Q01DX009 (ip), vehicle: Klucel (hydroxypropylcellulose) (HPC) 103 % of control | [8] 102 % of control | dose: 200.0 mg/kg/injection, schedule: Q01DX009 (ip), vehicle: Klucel (hydroxypropylcellulose) (HPC) 100 % of control | [9] 105 % of control | dose: 400.0 mg/kg/injection, schedule: Q04DX003 (ip), vehicle: Klucel (hydroxypropylcellulose) (HPC) 92 % of control

CNC(=O)c1cnc(SC)nc1N
inactive: dose: 50.0 mg/kg/injection, schedule: Q04DX003 (ip), vehicle: Klucel (hydroxypropylcellulose) (HPC) 103 % of control | dose: 100.0 mg/kg/injection, schedule: Q01DX001 (ip), vehicle: Klucel (hydroxypropylcellulose) (HPC) 103 % of control | [8] 101 % of control | dose: 200.0 mg/kg/injection, schedule: Q01DX001 (ip), vehicle: Klucel (hydroxypropylcellulose) (HPC) 100 % of control | [9] 111 % of control

CC(=O)OS(=O)(=O)c1ccc(C)cc1
inactive: [1] 98 % of control | [4] 94 % of control | [2] 90 % of control | [6] 92 % of control | [7] 89 % of control
